Source: ChEMBL document CHEMBL3817807, “Sequence-specific DNA binding by long hairpin pyrrole-imidazole polyamides containing an 8-amino-3,6-dioxaoctanoic acid unit” (Bioorg Med Chem, 2016)
The source made the active and inactive calls.

Experiments:
[1] = Binding affinity to AGTCAGCCT oligonucleotide DNA sequence (unknown origin) at 50 nM incubated for 16 hrs by PCR based Bind-n-Seq analysis
[2] = Binding affinity to TGTCAGCCT oligonucleotide DNA sequence (unknown origin) at 50 nM incubated for 16 hrs by PCR based Bind-n-Seq analysis
[3] = Binding affinity to TGTCAGCGA oligonucleotide DNA sequence (unknown origin) at 50 nM incubated for 16 hrs by PCR based Bind-n-Seq analysis
[4] = Binding affinity to GGTTGACAT oligonucleotide DNA sequence (unknown origin) at 50 nM incubated for 16 hrs by PCR based Bind-n-Seq analysis
[5] = Binding affinity to TGGCAGACT oligonucleotide DNA sequence (unknown origin) at 50 nM incubated for 16 hrs by PCR based Bind-n-Seq analysis
[6] = Binding affinity to GGCTGACTG oligonucleotide DNA sequence (unknown origin) at 50 nM incubated for 16 hrs by PCR based Bind-n-Seq analysis
[7] = Binding affinity to GTGTCAGCC oligonucleotide DNA sequence (unknown origin) at 50 nM incubated for 16 hrs by PCR based Bind-n-Seq analysis
[8] = Binding affinity to TGGCAGACA oligonucleotide DNA sequence (unknown origin) at 50 nM incubated for 16 hrs by PCR based Bind-n-Seq analysis
[9] = Binding affinity to ATGTCTGCC oligonucleotide DNA sequence (unknown origin) at 50 nM incubated for 16 hrs by PCR based Bind-n-Seq analysis
[10] = Binding affinity to TAGTCAGCC oligonucleotide DNA sequence (unknown origin) at 50 nM incubated for 16 hrs by PCR based Bind-n-Seq analysis
[11] = Binding affinity to GGGCAGAAA oligonucleotide DNA sequence (unknown origin) at 50 nM incubated for 16 hrs by PCR based Bind-n-Seq analysis
[12] = Binding affinity to AGAAAGGCG oligonucleotide DNA sequence (unknown origin) at 50 nM incubated for 16 hrs by PCR based Bind-n-Seq analysis
[13] = Binding affinity to AAAGGGTAA oligonucleotide DNA sequence (unknown origin) at 50 nM incubated for 16 hrs by PCR based Bind-n-Seq analysis
[14] = Binding affinity to ATCGGCAAA oligonucleotide DNA sequence (unknown origin) at 50 nM incubated for 16 hrs by PCR based Bind-n-Seq analysis
[15] = Binding affinity to AAAGAAGGC oligonucleotide DNA sequence (unknown origin) at 50 nM incubated for 16 hrs by PCR based Bind-n-Seq analysis
[16] = Binding affinity to AGGCGAAAT oligonucleotide DNA sequence (unknown origin) at 50 nM incubated for 16 hrs by PCR based Bind-n-Seq analysis
[17] = Binding affinity to AAAGGCCGA oligonucleotide DNA sequence (unknown origin) at 50 nM incubated for 16 hrs by PCR based Bind-n-Seq analysis
[18] = Binding affinity to AAAGGAATC oligonucleotide DNA sequence (unknown origin) at 50 nM incubated for 16 hrs by PCR based Bind-n-Seq analysis
[19] = Binding affinity to TATGGCTCA oligonucleotide DNA sequence (unknown origin) at 50 nM incubated for 16 hrs by PCR based Bind-n-Seq analysis
[20] = Binding affinity to CCTTTCGGC oligonucleotide DNA sequence (unknown origin) at 50 nM incubated for 16 hrs by PCR based Bind-n-Seq analysis

Measured: Activity

CC(=O)Nc1cn(C)c(C(=O)Nc2cn(C)c(C(=O)NCCOCCOCC(=O)Nc3cn(C)c(C(=O)Nc4cc(C(=O)Nc5cc(C(=O)NCCCC(=O)Nc6cn(C)c(C(=O)Nc7cc(C(=O)Nc8cc(C(=O)NCCC(=O)Nc9cn(C)c(C(=O)Nc%10cc(C(=O)Nc%11cc(C(=O)NCCC(=O)NCCCN(C)CCCNC(=O)CCOCCOCCOCCOCCOCCOCCOCCOCCOCCOCCOCCOCCNC(=O)CCCC[C@@H]%12SC[C@@H]%13NC(=O)N[C@@H]%13%12)n(C)c%11)n(C)c%10)n9)n(C)c8)n(C)c7)n6)n(C)c5)n(C)c4)n3)n2)n1
active: [1] | [2] | [3] | [4] | [5] | [6] | [7] | [8] | [9] | [10]

CC(=O)Nc1cn(C)c(C(=O)Nc2cn(C)c(C(=O)Nc3cc(C(=O)NCCC(=O)Nc4cn(C)c(C(=O)Nc5cc(C(=O)Nc6cc(C(=O)NCCCC(=O)Nc7cn(C)c(C(=O)Nc8cc(C(=O)NCCOCCOCC(=O)Nc9cn(C)c(C(=O)Nc%10cc(C(=O)Nc%11cc(C(=O)NCCC(=O)NCCCN(C)CCCNC(=O)CCOCCOCCOCCOCCOCCOCCOCCOCCOCCOCCOCCOCCNC(=O)CCCC[C@@H]%12SC[C@@H]%13NC(=O)N[C@@H]%13%12)n(C)c%11)n(C)c%10)n9)n(C)c8)n7)n(C)c6)n(C)c5)n4)n(C)c3)n2)n1
active: [11] | [12] | [13] | [14] | [15] | [16] | [17] | [18] | [19] | [20]
